Laboratory results published in US9845306B2, “Cationic lipid” (Kyowa Hakko Kirin Co., Ltd., priority 2010, dated 2017).

Assay: Average particle diameter of the liposomes in each preparation (Zetasizer Nano ZS)
Type: physicochemical
Conditions: for Particle diameter of Preparetion: liposome preparation of Example 118: compound/PEG-DMPE/DSPC/cholesterol with apo-b siRNA; for average particle diameter of the liposomes in the preparation: preparations of Comparative Examples 1 to 8, made as in Example 118 with apo-b siRNA
From the text: Preparations were produced using the compounds obtained in Examples 1 to 117, as follows.
Anti-APO-B siRNA was used as the nucleic acid. Anti-APO-B siRNA suppresses expression of an apolipoprotein-B (hereinafter, “apo-b”) gene and has a sense strand with the base sequence 5′-GmUCAmUCACACmUGAAmUACCAAmU-3′ (the sugars attached to the bases appended with m are 2′-O-methyl-substituted riboses), and an antisense strand with the base sequence 5′-[…]-3′ (the 5′-end is phosphorylated). The sense strand and the antisense strand were obtained from Nippon EGT or Hokkaido System Science Co., Ltd., and annealed to prepare the nucleic acid (hereinafter, “apo-b siRNA”).
A solution comprising the constituent components of a lipid membrane was prepared by dissolving each of the weighed samples in 90 vol % ethanol in 8.947/1.059/5.708/13.697 mmol/L [compounds 1 to 117 obtained in Examples 1 to 117/1,2-dimyristoyl-sn-glycero-3-phosphoethanolamine-A-(methoxy(polyethylene glycol)-2000) (PEG-DMPE, N-(carbonylmethoxypolyethylene glycol 2000)-1,2-dimyristoyl-sn-glycero-3-phosphoethanolamine sodium salt, NOF Corporation)/distearoylphosphatidyl choline (DSPC, 1,2-distearoyl-sn-glycero-3-phosphocholine, NOF Corporation)/cholesterol (Avanti Polar Lipids)]. Separately, apo-b siRNA/distilled water (24 mg/mL) was diluted with a Tris-EDTA buffer (200 mM Tris-HCl, 20 mM EDTA, Invitrogen) and a 20 mM citric acid buffer (pH 5.0) to prepare a 1.5 mg/mL apo-b siRNA aqueous solution (2 mM Tris-EDTA buffer, pH 5.0).
The resulting lipid solution was heated to 37° C., and a […] portion was transferred to a preparation container. The apo-b siRNA aqueous solution (100 μL) was then added thereto while being stirred. Then, a 20 mM citric acid buffer (containing 300 mM NaCl, pH 6.0; 200 μL) was added to the lipid nucleic acid mixed suspension (200 μL) while being stirred. The siRNA concentration was brought to 10 μM by dropping a Dulbecco phosphate buffer (DPBS, Invitrogen; 662 μL), and preparations (compositions comprising compounds 1 to 117 and the nucleic acid) were obtained.
The average particle diameter of the liposomes in each preparation was measured with a particle diameter measurement device (Malvern; Zetasizer Nano ZS).

| SMILES | Particle diameter of Preparetion [nm] | average particle diameter of the liposomes in the preparation [nm] |
| --- | --- | --- |
| CCCCC/C=C\C/C=C\CCCCCCCCOC1CN(CCCN(C)C)C[C@H]1OCCCCCCCC/C=C\C/C=C\CCCCC (stereo partly drawn) [Compound 59, (3R,4R)-1-(3-N,N-Dimethylaminopropyl)-3,4-bis((9Z,12Z)-octadec-9,12-dienyloxy)pyrrolidine] | 116.7 |  |
| CCCCC/C=C\C/C=C\CCCCCCCCO[C@@H]1CN(Cc2ccccc2)C[C@H]1OCCCCCCCC/C=C\C/C=C\CCCCC [Compound VI-3, (3R,4R)-1-Benzyl-3,4-bis((9Z,12Z)-octadec-9,12-dienyloxy)pyrrolidine, reference compound] |  | 167.8 |
| CCCCC/C=C\C/C=C\CCCCCCCC(=O)OC1CN(C(=O)[C@@H](N)CCCCN)C[C@H]1OC(=O)CCCCCCC/C=C\C/C=C\CCCCC (stereo partly drawn) [Compound 66, (3R,4R)-1-((S)-2,6-Diaminohexanoyl)pyrrolidine-3,4-diyl di((9Z,12Z)-octadec-9,12-enoate)] | 137.4 |  |
| CCCCC/C=C\C/C=C\CCCCCCCCCCOCC1CN(C(=O)[C@@H](N)CCCCN)C[C@H]1COCCCCCCCCCC/C=C\C/C=C\CCCCC (stereo partly drawn) [Compound 115, trans-1-((S)-2,6-Diaminohexanoyl)-3,4-bis(((11Z,14Z)-icos-11,14-dienyloxy)methyl) pyrrolidine] | 152.8 |  |
| CCCCC/C=C\C/C=C\CCCCCCCCO[C@H]1CN(C)C[C@@H]1OCCCCCCCC/C=C\C/C=C\CCCCC [Compound 50, (3S,4S)-1-Methyl-3,4-bis((9Z,12Z)-octadec-9,12-dienyloxy)pyrrolidine] | 129.2 |  |
| CCCCC/C=C\C/C=C\CCCCCCCCO[C@H]1CNC[C@@H]1OCCCCCCCC/C=C\C/C=C\CCCCC [Compound 43, (3S,4S)-3,4-bis((9Z,12Z)-Octadec-9,12-dienyloxy)pyrrolidine] | 150.0 |  |
| CCCCC/C=C\C/C=C\CCCCCCCC(=O)O[C@@H]1CN(C)C[C@H]1OC(=O)CCCCCCC/C=C\C/C=C\CCCCC [Compound A-3, (3R,4R)-1-Methylpyrrolidine-3,4-diyl di((9Z,12Z)-octadec-9,12-dienoate), reference compound] |  | 141.0 |
| CCCCCCCC/C=C\CCCCCCCCO[C@@H]1CN(Cc2ccccc2)C[C@H]1OCCCCCCCC/C=C\CCCCCCCC [Compound VI-4, (3R,4R)-1-Benzyl-3,4-bis((Z)-octadec-9-enyloxy)pyrrolidine, reference compound] |  | 157.8 |
| CCCCC/C=C\C/C=C\CCCCCCCCOC1CN(CCC(=O)N(C)C)C[C@H]1OCCCCCCCC/C=C\C/C=C\CCCCC (stereo partly drawn) [Compound 58, 3-((3R,4R)-3,4-bis((9Z,12Z)-Octadec-9,12-dienyloxy)pyrrolidin-1-yl)-N,N-dimethyl propanamide] | 151.8 |  |
| CCCCC/C=C\C/C=C\CCCCCCCC(=O)OC1CN(C(=O)CN)C[C@H]1OC(=O)CCCCCCC/C=C\C/C=C\CCCCC (stereo partly drawn) [Compound 65, (3R,4R)-1-(2-aminoacetyl)pyrrolidine-3,4-diyl di((9Z,12Z)-octadec-9,12-enoate)] | 128.9 |  |
| CCCCC/C=C\C/C=C\CCCCCCCC(=O)OCCN(C)CCOC(=O)CCCCCCC/C=C\C/C=C\CCCCC [Compound A-5, N-Methyl-N,N-bis(2-((9Z,12Z)-1-oxooctadec-9,12-dienyloxy)ethyl)amine, reference compound] |  | 136.4 |
| CCCCCCCC/C=C\CCCCCCCC(=O)OCCN(C)CCOC(=O)CCCCCCC/C=C\CCCCCCCC [Compound A-6, N-Methyl-N,N-bis(2-((Z)-1-oxooctadec-9-enyloxy)ethyl)amine, reference compound] |  | 139.5 |
| CCCCC/C=C\C/C=C\CCCCCCCCOC1CN(CC(O)COC)C[C@H]1OCCCCCCCC/C=C\C/C=C\CCCCC (stereo partly drawn) [Compound 55, 1-(3R,4R)-3,4-bis(((9Z,12Z)-Octadec-9,12-dienyloxy)pyrrolidine-1-yl)-3-methoxypropan-2-ol] | 139.6 |  |
| CCCCCCCC/C=C\CCCCCCCC(=O)O[C@@H]1CN(C)C[C@H]1OC(=O)CCCCCCC/C=C\CCCCCCCC [Compound A-4, (3R,4R)-1-Methylpyrrolidine-3,4-diyl di((Z)-octadec-9-enoate), reference compound] |  | 131.1 |
| CCCCC/C=C\C/C=C\CCCCCCCCO[C@@H]1CN(CC(C)O)C[C@H]1OCCCCCCCC/C=C\C/C=C\CCCCC (mixture of isomers) [Compound 54, 1-((3R,4R)-3,4-bis((9Z,12Z)-Octadec-9,12-dienyloxy)pyrrolidine-1-yl)propan-2-ol] | 148.9 |  |
| CCCCC/C=C\C/C=C\CCCCCCCC(=O)OC1CN(CC(O)CO)C[C@H]1OC(=O)CCCCCCC/C=C\C/C=C\CCCCC (stereo partly drawn) [Compound 53, (3R,4R)-1-(2,3-diHydroxypropyl)pyrrolidine-3,4-diyl di((9Z,12Z)-octadec-9,12-enoate)] | 152.4 |  |
| CCCCCCCC/C=C\CCCCCCCC(=O)OCC(C[N+](C)(C)C)OC(=O)CCCCCCC/C=C\CCCCCCCC.[Cl-] (centres unmarked) [DOTAP, N-(2,3-di-(9-(Z)-octadecenoyloxy))-prop-1-yl-N,N,N-trimethylammonium chloride, reference compound] |  | 104.0 |
